How the values were obtained:
Format in all cases: cell-based
[1] = tested on: Bovine articular cartilage explants; assay: ^342FFGVG-G2 release into supernatants of bovine articular cartilage explants (AF-28/F78 sandwich assay); settings: FIG. 5; for release of ^342FFGVG-G2 on cytokine stimulation: OSM and TNF-α together, after day 12
Method: Streptavidin plates were incubated for 1 hour, 300 RPM, 20° C. with 100 μl 1500 ng/ml biotinylated AF-28 monoclonal antibody against the epitope ^342FFGVG-G2. Antibody dilutions were made in PBS-BTB buffer. After incubating the plates for 1 hour, plates were washed 5 times with washing buffer (0.15 mol/l NaCl, 0.05% (v/v) Tween 20). Subsequently 50 μl standards (MMP-13 digested purified porcine aggrecan 47-3000 ng/ml or pre-diluted explant supernatants in PBS-BTB were added, and the plates were incubated for 1 hour, 300 RPM, 20° C. After the incubation period, the plates were washed 5 times as described previously, and 500 ng/ml horseradish Peroxidase (POD)-labelled F78 antibody was added. After incubating for 1 hour, 300 RPM, 20° C., the plates were washed 5 times, 100 μl of TMB substrate was added, and the plates were incubated for 15 minutes, 300 RPM, 20° C. in the dark before 150 μl 0.18 M H2SO4 was added. The absorbance was measured immediately after at 450 nm.
(§1) The G2 and the ^342FFGVG-G2 test described above were evaluated using conditioned medium from cartilage explants. Bovine articular cartilage was obtained from heifer stifle joints. Pieces of cartilage (16±4 mg) were placed in 96 well plates and incubated at 37° C. with 5% CO2 and shaking (50 rpm). Serum-free D-MEM medium with or without the cytokines oncostatin M and tumour necrosis factor α (TNFα) or the MMP inhibitor GM6001 was used. As negative control, cartilage was placed in chryo-tubes, frozen in liquid N2, and thawed at 37° C. in water-bath for three repeated freeze-thaw cycles. The explants culture medium was replaced every 3rd day, and supernatants were stored at −20° C. until further analysis.

[2] = tested on: Bovine articular cartilage explants; assay: G2 release into supernatants of bovine articular cartilage explants (F78 sandwich assay); settings: FIG. 5; for release of G2 on cytokine stimulation: OSM and TNF-α together, decreases after day 5, background after day 12
Method: A sandwich assay was developed using monoclonal antibodies as described above. Streptavidin plates were incubated for 1 hour, 300 RPM, 20° C. with 100 μl 600 ng/ml biotinylated F78 monoclonal antibody against the G2 domain of aggrecan.
After incubating the plates for 1 hour, plates were washed 5 times with washing buffer (0.15 mol/l NaCl, 0.05% (v/v) Tween 20). Subsequently 100 μl standards (purified bovine aggrecan 0.05 ng/ml-10 ng/ml, or pre-diluted explant supernatants in PBS-BTB were added, and the plates were incubated for 1 hour, 300 RPM, 20° C. After the incubation period, the plates were washed 5 times as described previously, and 500 ng/ml horseradish Peroxidase (POD)-labelled F78 antibody was added. After incubating for 1 hour, 300 RPM, 20° C., the plate was washed 5 times, and 100 μl of TMB substrate was added, and the plate was incubated for 15 minutes, 300 RPM, 20° C. in the dark before 150 μl 0.18 M H2SO4 was added. The absorbance was measured immediately at 450 nm.
as §1

[3] = tested on: Bovine articular cartilage explants; assay: CS846 release into supernatants of bovine articular cartilage explants (IBEX CS846 competitive ELISA kit); settings: FIG. 6; for release of CS846 on cytokine stimulation: OSM and TNFα together
Method: as §1
The supernatants evaluated above was also measured for CS846 (IBEX CS846 competitive ELISA kit).

Question: Which “release of ^342FFGVG-G2 on cytokine stimulation” value [1] does the source give for tumour necrosis factor α [TNF-α] here?
Answer: stimulate an increase

Question: What about the “release of G2 on cytokine stimulation” value [2] of the same molecule?
Answer: initial elevation

Question: And the “release of CS846 on cytokine stimulation” value [3]?
Answer: do not stimulate release

Question: With `CNC(=O)[C@H](Cc1c[nH]c2ccccc12)NC(=O)[C@@H](CC(=O)NO)CC(C)C` [GM6001] as the molecule, how does the “release of ^342FFGVG-G2 in the presence of the MMP inhibitor” value ([1]; explants treated with OSM and TNF-α concomitantly with GM6001) read?
Answer: completely abrogated

Question: What about the “release of G2 on addition of the MMP inhibitor” value ([2]; explants treated with OSM and TNF-α plus GM6001) of the same molecule?
Answer: did not inhibit

Question: And the “CS846 release during inhibition of MMP activity” value ([3]; explants with GM6001)?
Answer: strong, initial elevation

B1: oncostatin M (protein, UniProt P13725 26-221, looked up)
Oncostatin-M: AAIGSCSKEYRVLLGQLQKQTDLMQDTSRLLDPYIRIQGLDVPKLREHCRERPGAFPSEETLRGLGRRGFLQTLNATLGCVLHRLADLEQRLPKAQDLERSGLNIEDLEKLQMARPNILGLRNNIYCMAQLLDNSDTAEPTKAGRGASQPPTPTPASDAFQRKLEGCRFLHGYHRFMHSVGRVFSKWGESPNRSRR
notes: cytokine oncostatin M used to stimulate cartilage explants
Question: Which results are given for B1?
Answer: release of ^342FFGVG-G2 on cytokine stimulation [1]: stimulate an increase; release of G2 on cytokine stimulation [2]: initial elevation; release of CS846 on cytokine stimulation [3]: do not stimulate release

Reference: US20090291462A1, “Detection or Quantification of Aggrecan and its Fragments” (Immunodiagnostic Systems Nordic A/S, priority 2005, published 2009)
